Laboratory results: BindingDB's records for doi:10.1016/j.ejmech.2022.114542 (National Institute of Pharmaceutical Education and …, 2022)

Test: Inhibition of ABCG2 efflux pump in multi-drug resistance human HL-60 cells assessed as reversal of daunorubicin sensitivity

IC50: 4.44 µM
Structure (SMILES): CO[C@@H]1[C@H](N(C)C(=O)c2ccccc2)C[C@H]2O[C@]1(C)n1c3ccccc3c3c4c(c5c6ccccc6n2c5c31)C(=O)NC4 [PKC-412]
